Source: PubChem BioAssay (NCI)
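These data come from cells grown in 96-well plates and exposed to compound for 48 hours at five concentrations. The concentration for 50% growth inhibition is given as GI50. TGI is the concentration that stops growth completely.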

What was measured:
Experiment in all cases: NCI tumour cell line growth inhibition, 48 h
786-0 renal = tested on: 786-0 renal
A498 renal = tested on: A498 renal
A549 NSCLC = tested on: A549 NSCLC
ACHN renal = tested on: ACHN renal
BT-549 breast = tested on: BT-549 breast
CAKI-1 renal = tested on: CAKI-1 renal
CCRF-CEM leukemia = tested on: CCRF-CEM leukemia
COLO 205 colon = tested on: COLO 205 colon
DU-145 prostate = tested on: DU-145 prostate
EKVX NSCLC = tested on: EKVX NSCLC
HCC-2998 colon = tested on: HCC-2998 colon
HCT-116 colon = tested on: HCT-116 colon
HCT-15 colon = tested on: HCT-15 colon
HL-60(TB) leukemia = tested on: HL-60(TB) leukemia
HOP-62 NSCLC = tested on: HOP-62 NSCLC
HOP-92 NSCLC = tested on: HOP-92 NSCLC
HS 578T breast = tested on: HS 578T breast
HT29 colon = tested on: HT29 colon
IGROV1 ovarian = tested on: IGROV1 ovarian
K-562 leukemia = tested on: K-562 leukemia
KM12 colon = tested on: KM12 colon
LOX IMVI melanoma = tested on: LOX IMVI melanoma
M14 melanoma = tested on: M14 melanoma
MALME-3M melanoma = tested on: MALME-3M melanoma
MCF7 breast = tested on: MCF7 breast
MDA-MB-231 breast = tested on: MDA-MB-231 breast
MDA-MB-435 = tested on: MDA-MB-435
MDA-MB-468 breast = tested on: MDA-MB-468 breast
MOLT-4 leukemia = tested on: MOLT-4 leukemia
NCI-H226 lung = tested on: NCI-H226 lung
NCI-H23 lung = tested on: NCI-H23 lung
NCI-H460 lung = tested on: NCI-H460 lung
NCI-H522 lung = tested on: NCI-H522 lung
NCI/ADR-RES ovarian = tested on: NCI/ADR-RES ovarian
OVCAR-3 ovarian = tested on: OVCAR-3 ovarian
OVCAR-4 ovarian = tested on: OVCAR-4 ovarian
OVCAR-5 ovarian = tested on: OVCAR-5 ovarian
OVCAR-8 ovarian = tested on: OVCAR-8 ovarian
PC-3 prostate = tested on: PC-3 prostate
RPMI-8226 leukemia = tested on: RPMI-8226 leukemia
RXF 393 renal = tested on: RXF 393 renal
SF-268 CNS = tested on: SF-268 CNS
SF-295 CNS = tested on: SF-295 CNS
SF-539 CNS = tested on: SF-539 CNS
SK-MEL-2 melanoma = tested on: SK-MEL-2 melanoma
SK-MEL-28 melanoma = tested on: SK-MEL-28 melanoma
SK-MEL-5 melanoma = tested on: SK-MEL-5 melanoma
SK-OV-3 ovarian = tested on: SK-OV-3 ovarian
SN12C renal = tested on: SN12C renal
SNB-19 CNS = tested on: SNB-19 CNS
SNB-75 CNS = tested on: SNB-75 CNS
SR leukemia = tested on: SR leukemia
SW-620 colon = tested on: SW-620 colon
T-47D breast = tested on: T-47D breast
TK-10 renal = tested on: TK-10 renal
U251 CNS = tested on: U251 CNS
UACC-257 melanoma = tested on: UACC-257 melanoma
UACC-62 melanoma = tested on: UACC-62 melanoma
UO-31 renal = tested on: UO-31 renal

`CN1CCN(Cc2ccc(NC(=O)c3cncc(C#Cc4cnc5ccc(N[C@@H]6CCOC6)nn45)c3)cc2C(F)(F)F)CC1` showed a GI50 (786-0 renal) of 235 nM, a TGI (786-0 renal) of 712 nM and a GI50 (A498 renal) of 269 nM. It also gave a TGI (A498 renal) of 475 nM, a GI50 (A549 NSCLC) of 138 nM and a TGI (A549 NSCLC) of 1010 nM. For the same compound, the GI50 (ACHN renal) was 256 nM, the TGI (ACHN renal) was 1040 nM and the GI50 (BT-549 breast) was 169 nM. It also gave a TGI (BT-549 breast) of 631 nM, a GI50 (CAKI-1 renal) of 128 nM and a TGI (CAKI-1 renal) of 484 nM. For the same compound, the GI50 (CCRF-CEM leukemia) was less than 9.7 nM, the TGI (CCRF-CEM leukemia) was 356 nM and the GI50 (COLO 205 colon) was 30.1 nM. For the same compound, the TGI (COLO 205 colon) was 86.8 nM, the GI50 (DU-145 prostate) was 148 nM and the TGI (DU-145 prostate) was 557 nM. The GI50 (EKVX NSCLC) was 120 nM, the TGI (EKVX NSCLC) was 383 nM and the GI50 (HCC-2998 colon) was 198 nM. For the same compound, the TGI (HCC-2998 colon) was 553 nM, the GI50 (HCT-116 colon) was 48.6 nM and the TGI (HCT-116 colon) was 640 nM. The GI50 (HCT-15 colon) was 335 nM, the TGI (HCT-15 colon) was 1370 nM and the GI50 (HL-60(TB) leukemia) was 85.5 nM. It also gave a TGI (HL-60(TB) leukemia) of 759 nM, a GI50 (HOP-62 NSCLC) of 104 nM and a TGI (HOP-62 NSCLC) of 355 nM. The GI50 (HOP-92 NSCLC) was 27.7 nM, the TGI (HOP-92 NSCLC) was 133 nM and the GI50 (HS 578T breast) was 28.8 nM. The TGI (HS 578T breast) was 398 nM, the GI50 (HT29 colon) was 87.9 nM and the TGI (HT29 colon) was 415 nM. The GI50 (IGROV1 ovarian) was 107 nM, the TGI (IGROV1 ovarian) was 531 nM and the GI50 (K-562 leukemia) was less than 9.7 nM. The TGI (K-562 leukemia) was 10100 nM, the GI50 (KM12 colon) was less than 9.7 nM and the TGI (KM12 colon) was 761 nM. It also gave a GI50 (LOX IMVI melanoma) of 55.4 nM, a TGI (LOX IMVI melanoma) of 187 nM and a GI50 (M14 melanoma) of 78.4 nM. For the same compound, the TGI (M14 melanoma) was 245 nM, the GI50 (MALME-3M melanoma) was 89.7 nM and the TGI (MALME-3M melanoma) was 299 nM. For the same compound, the GI50 (MCF7 breast) was 51.8 nM, the TGI (MCF7 breast) was 518 nM and the GI50 (MDA-MB-231 breast) was 42.3 nM. For the same compound, the TGI (MDA-MB-231 breast) was 289 nM, the GI50 (MDA-MB-435) was 113 nM and the TGI (MDA-MB-435) was 338 nM. For the same compound, the GI50 (MDA-MB-468 breast) was 60 nM, the TGI (MDA-MB-468 breast) was 194 nM and the GI50 (MOLT-4 leukemia) was 26.6 nM. For the same compound, the TGI (MOLT-4 leukemia) was 919 nM, the GI50 (NCI-H226 lung) was 14.4 nM and the TGI (NCI-H226 lung) was 218 nM. The GI50 (NCI-H23 lung) was 108 nM, the TGI (NCI-H23 lung) was 265 nM and the GI50 (NCI-H460 lung) was 104 nM. The TGI (NCI-H460 lung) was 374 nM, the GI50 (NCI-H522 lung) was 122 nM and the TGI (NCI-H522 lung) was 280 nM. The GI50 (NCI/ADR-RES ovarian) was 2780 nM, the TGI (NCI/ADR-RES ovarian) was 17100 nM and the GI50 (OVCAR-3 ovarian) was 125 nM. For the same compound, the TGI (OVCAR-3 ovarian) was 509 nM, the GI50 (OVCAR-4 ovarian) was 138 nM and the TGI (OVCAR-4 ovarian) was 646 nM. It also gave a GI50 (OVCAR-5 ovarian) of 202 nM, a TGI (OVCAR-5 ovarian) of 618 nM and a GI50 (OVCAR-8 ovarian) of 189 nM. It also gave a TGI (OVCAR-8 ovarian) of 963 nM, a GI50 (PC-3 prostate) of 161 nM and a TGI (PC-3 prostate) of 1160 nM. The GI50 (RPMI-8226 leukemia) was 201 nM, the TGI (RPMI-8226 leukemia) was 1570 nM and the GI50 (RXF 393 renal) was 71.3 nM. For the same compound, the TGI (RXF 393 renal) was 217 nM, the GI50 (SF-268 CNS) was 122 nM and the TGI (SF-268 CNS) was 377 nM. The GI50 (SF-295 CNS) was 88.8 nM, the TGI (SF-295 CNS) was 587 nM and the GI50 (SF-539 CNS) was 19.3 nM. For the same compound, the TGI (SF-539 CNS) was 74.2 nM, the GI50 (SK-MEL-2 melanoma) was 173 nM and the TGI (SK-MEL-2 melanoma) was 318 nM. The GI50 (SK-MEL-28 melanoma) was 193 nM, the TGI (SK-MEL-28 melanoma) was 629 nM and the GI50 (SK-MEL-5 melanoma) was 193 nM. For the same compound, the TGI (SK-MEL-5 melanoma) was 556 nM, the GI50 (SK-OV-3 ovarian) was 274 nM and the TGI (SK-OV-3 ovarian) was 713 nM. For the same compound, the GI50 (SN12C renal) was 34 nM, the TGI (SN12C renal) was 271 nM and the GI50 (SNB-19 CNS) was 222 nM. It also gave a TGI (SNB-19 CNS) of 769 nM, a GI50 (SNB-75 CNS) of 126 nM and a TGI (SNB-75 CNS) of 300 nM. It also gave a GI50 (SR leukemia) of 99.2 nM, a TGI (SR leukemia) of 7320 nM and a GI50 (SW-620 colon) of 94.4 nM. For the same compound, the TGI (SW-620 colon) was 603 nM, the GI50 (T-47D breast) was 323 nM and the TGI (T-47D breast) was 3140 nM. The GI50 (TK-10 renal) was 245 nM, the TGI (TK-10 renal) was 646 nM and the GI50 (U251 CNS) was 216 nM. For the same compound, the TGI (U251 CNS) was 879 nM, the GI50 (UACC-257 melanoma) was 361 nM and the TGI (UACC-257 melanoma) was 4380 nM. It also gave a GI50 (UACC-62 melanoma) of 156 nM, a TGI (UACC-62 melanoma) of 539 nM and a GI50 (UO-31 renal) of 1190 nM. For the same compound, the TGI (UO-31 renal) was 2930 nM.
